Patent US8158668B2, “Methods for treating CNS disorders with 4-imidazole derivatives” (Hoffmann-La Roche Inc., priority 2006, dated 2012)

Each compound was assayed against T1, mouseTAAR1 (Mus musculus, UniProt Q923Y8) (assay: Radioligand binding on membranes of HEK293 cells stably expressing TAAR1). Details: not given.
T1 construct: expressed in transfected cells; host or cells: HEK293 (ATCC #CRL-1573), stably transfected with pIRESneo2 expression plasmid; membrane preparation
T1 sequence (Q923Y8 whole entry): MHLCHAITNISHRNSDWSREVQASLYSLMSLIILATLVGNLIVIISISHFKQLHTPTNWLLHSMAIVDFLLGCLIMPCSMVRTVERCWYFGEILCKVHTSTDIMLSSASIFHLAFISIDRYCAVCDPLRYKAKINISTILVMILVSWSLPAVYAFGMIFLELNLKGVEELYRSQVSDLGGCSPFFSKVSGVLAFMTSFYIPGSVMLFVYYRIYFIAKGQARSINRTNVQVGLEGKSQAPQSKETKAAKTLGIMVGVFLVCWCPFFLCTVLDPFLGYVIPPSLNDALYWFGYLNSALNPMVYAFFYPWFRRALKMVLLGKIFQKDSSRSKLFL
Description: For the construction of expression plasmids the coding sequences of human, rat and mouse TAAR 1 were amplified from genomic DNA essentially as described by Lindemann et al.. The Expand High Fidelity PCR System (Roche Diagnostics) was used with 1.5 mM Mg^2+ and purified PCR products were cloned into pCR2.1-TOPO cloning vector (Invitrogen) following the instructions of the manufacturer. PCR products were subcloned into the pIRESneo2 vector (BD Clontech, Palo Alto, Calif.), and expression vectors were sequence verified before introduction in cell lines.
For the generation of stably transfected cell lines HEK293 cells were transfected with the pIRESneo2 expression plasmids containing the TAAR coding sequences (described above) with Lipofectamine 2000 (Invitrogen) according to the instructions of the manufacturer, and 24 hrs post transfection the culture medium was supplemented with 1 mg/ml G418 (Sigma, Buchs, Switzerland). After a culture period of about 10 d clones were isolated, expanded and tested for responsiveness to trace amines (all compounds purchased from Sigma) with the cAMP Biotrak Enzyme immunoassay (EIA) System (Amersham) following the non-acetylation EIA procedure provided by the manufacturer.
Cells at confluence were rinsed with ice-cold phosphate buffered saline without Ca^2+ and Mg^2+ containing 10 mM EDTA and pelleted by centrifugation at 1000 rpm for 5 min at 4° C. The pellet was then washed twice with ice-cold phosphate buffered saline and cell pellet was frozen immediately by immersion in liquid nitrogen and stored until use at −80° C. Cell pellet was then suspended in 20 ml HEPES-NaOH (20 mM), pH 7.4 containing 10 mM EDTA, and homogenized with a Polytron (PT 3000, Kinematica) at 10,000 rpm for 10 s. The homogenate was centrifuged at 48,000×g for 30 min at 4° C. and the pellet resuspended in 20 ml HEPES-NaOH (20 mM), pH 7.4 containing 0.1 mM EDTA (buffer A), and homogenized with a Polytron at 10,000 rpm for 10 s. The homogenate was then centrifuged at 48,000×g for 30 min at 4° C. and the pellet resuspended in 20 ml buffer A, and homogenized with a Polytron at 10,000 rpm for 10 s. Protein concentration was determined by the method of Pierce (Rockford, Ill.). The homogenate was then centrifuged at 48,000×g for 10 min at 4° C., resuspended in HEPES-NaOH (20 mM), pH 7.0 including MgCl2 (10 mM) and […] homogenized with a Polytron at 10,000 rpm for 10 s.
Binding assay was performed at 4° C. in a final volume of 1 ml, and with an incubation time of 30 min. […] Competing ligands were tested in a wide range of concentrations (10 pM-30 μM). […] Each experiment was performed in duplicate. All incubations were terminated by rapid filtration through UniFilter-96 plates (Packard Instrument Company) and glass filter GF/C, pre-soaked for at least 2 h in polyethylenimine 0.3%, and using a Filtermate 96 Cell Harvester (Packard Instrument Company). The tubes and filters were then washed 3 times with 1 ml aliquots of cold buffer B. Filters were not dried and soaked in Ultima gold (45 μl/well, Packard Instrument Company) and bound radioactivity was counted by a TopCount Microplate Scintillation Counter (Packard Instrument Company).
With `CCOc1cc(CC)c(Cc2cnc[nH]2)c(CC)c1` [Example 72, 4-(4-Ethoxy-2,6-diethyl-benzyl)-1H-imidazole] the Ki was 12.7 nM.
`CCC(c1cnc[nH]1)c1ccccc1F` (racemic) [Example 6, rac-4-[1-(2-Fluoro-phenyl)-propyl]-1H-imidazole] showed a Ki of 22 nM.
For `C[C@@H](c1cnc[nH]1)c1cccc(F)c1F` [Example 46, 4-[(R)-1-(2,3-Difluoro-phenyl)-ethyl]-1H-imidazole], the Ki was 7.8 nM.
With `Brc1ccccc1Cc1cnc[nH]1` [Example 27, 4-(2-Bromo-benzyl)-1H-imidazole] the Ki was 34 nM.
`CCc1cc(Oc2ccccc2)cc(CC)c1Cc1cnc[nH]1` [Example 79, 4-(2,6-Diethyl-4-phenoxy-benzyl)-1H-imidazole] gave a Ki of 5.6 nM.
With `c1cc(Cc2cnc[nH]2)c2occc2c1` [Example 51, 4-Benzofuran-7-ylmethyl-1-imidazole] the Ki was 9.3 nM.
Compound `CCCC(c1ccccc1)c1c[nH]cn1` (racemic) [Example 1, rac-4-(1-Phenyl-butyl)-1H-imidazole] has a Ki of 49 nM.
`CCC(c1cc(F)cc(F)c1)c1cnc[nH]1` (racemic) [Example 4, rac-4-[1-(3,5-Difluoro-phenyl)-propyl]-1H-imidazole] was tested, and the Ki was 28 nM.
Compound `CCc1cccc(Cl)c1Cc1cnc[nH]1` [Example 61, 4-(2-Chloro-6-ethyl-benzyl)-1H-imidazole] has a Ki of 11.5 nM.
Compound `CC(c1ccccc1)c1cnc[nH]1` (racemic) [Example 14, rac-4-(1-Phenyl-ethyl)-1H-imidazole] has a Ki of 4 nM.
Work on `CCc1ccc(Oc2ccccc2)c(CC)c1Cc1cnc[nH]1` [Example 80, 4-(2,6-Diethyl-3-phenoxy-benzyl)-1H-imidazole] yielded a Ki of 13.9 nM.
`c1cc2c(c(Cc3cnc[nH]3)c1)OCC2` [Example 50, 4-(2,3-Dihydro-benzofuran-7-ylmethyl)-1-imidazole] showed a Ki of 20.2 nM.
Work on `Clc1cccc(Cl)c1Cc1cnc[nH]1` [Example 33, 4-(2,6-Dichloro-benzyl)-1H-imidazole] yielded a Ki of 3 nM.
For `Fc1cccc(Cl)c1Cc1cnc[nH]1` [Example 12, 4-(2-Chloro-6-fluoro-benzyl)-1H-imidazole], the Ki was 19 nM.
In the case of `c1ccc(-c2cccc(Cc3cnc[nH]3)c2)cc1` [Example 71, 4-Biphenyl-3-ylmethyl-1H-imidazole], the Ki is reported as 39.1 nM.
For `CCc1cccc(CC)c1Cc1cnc[nH]1` [Example 26, 4-(2,6-Diethyl-benzyl)-1H-imidazole], the Ki was 10 nM.
In the case of `Cc1cccc(C)c1Cc1cnc[nH]1` [Example 29, 4-(2,6-Dimethyl-benzyl)-1H-imidazole], the Ki is reported as 4 nM.
`CC(c1cnc[nH]1)c1cccc(F)c1F` (racemic) [Example 17, rac-4-[1-(2,3-Difluoro-phenyl)-ethyl]-1H-imidazole] showed a Ki of 11 nM.
`CCOc1ccc(CC)c(Cc2cnc[nH]2)c1CC` [Example 74, 4-(3-Ethoxy-2,6-diethyl-benzyl)-1H-imidazole] was tested, and the Ki was 3.7 nM.
Compound `CCC(c1cnc[nH]1)c1cccc(F)c1F` (racemic) [Example 20, rac-4-[1-(2,3-Difluoro-phenyl)-propyl]-1H-imidazole] has a Ki of 18 nM.
With `CCc1cccc(C)c1Cc1cnc[nH]1` [Example 57, 4-(2-Ethyl-6-methyl-benzyl)-1H-imidazole] the Ki was 10.8 nM.
`CCc1cccc(F)c1Cc1cnc[nH]1` [Example 78, 4-(2-Ethyl-6-fluoro-benzyl)-1H-imidazole] was tested, and the Ki was 17.9 nM.
`CCC(c1ccccc1)c1cnc[nH]1` (racemic) [Example 5, rac-4-(1-Phenyl-propyl)-1H-imidazole] was tested, and the Ki was 36 nM.
Work on `CC(c1cccc(F)c1)c1cnc[nH]1` (racemic) [Example 15, rac-4-[1-(3-Fluoro-phenyl)-ethyl]-1H-imidazole] yielded a Ki of 19 nM.
Work on `CC(c1cnc[nH]1)c1ccccc1F` (racemic) [Example 2, rac-4-[1-(2-Fluoro-phenyl)-ethyl]-1H-imidazole] yielded a Ki of 12 nM.
Compound `CCc1cccc(C2CC2)c1Cc1cnc[nH]1` [Example 58, 4-(2-Cyclopropyl-6-ethyl-benzyl)-1H-imidazole] has a Ki of 9.8 nM.
With `CC(C)(c1ccccc1)c1cnc[nH]1` [Example 41, 5-(1-methyl-1-phenyl-ethyl)-1H-imidazole trifluoro-acetate] the Ki was 46.1 nM.
`c1ccc2cc(Cc3c[nH]cn3)ccc2c1` [Example 39, 4-Naphthalen-2-ylmethyl-1H-imidazole] gave a Ki of 29 nM.
Compound `c1ccc(-c2ccccc2Cc2cnc[nH]2)cc1` [Example 67, 4-Biphenyl-2-ylmethyl-1H-imidazole] has a Ki of 27.6 nM.
Compound `Cc1ccc2ccccc2c1Cc1cnc[nH]1` [Example 572, 4-(2-Methyl-naphthalen-1-ylmethyl)-1H-imidazole] has a Ki of 5.6 nM.
For `Cc1cc(C)c(C)c(Cc2cnc[nH]2)c1C` [Example 31, 4-(2,3,5,6-Tetramethyl-benzyl)-1H-imidazole], the Ki was 16 nM.
`CCc1ccc(OC)c(CC)c1Cc1cnc[nH]1` [Example 70, 4-(2,6-Diethyl-3-methoxy-benzyl)-1H-imidazole] was tested, and the Ki was 3.8 nM.
Compound `CCC(c1cccc(F)c1)c1cnc[nH]1` (racemic) [Example 7, rac-4-[1-(3-Fluoro-phenyl)-propyl]-1H-imidazole] has a Ki of 32 nM.
Work on `Clc1ccc(Oc2cccc(Cc3cnc[nH]3)c2)cc1` [Example 60, 4-[3-(4-Chloro-phenoxy)-benzyl]-1H-imidazole] yielded a Ki of 27.6 nM.
In the case of `CCc1cc(OC)cc(CC)c1Cc1cnc[nH]1` [Example 69, 4-(2,6-Diethyl-4-methoxy-benzyl)-1H-imidazole], the Ki is reported as 2.6 nM.
`CC(c1c[nH]cn1)c1cccc2ccccc12` (racemic) [Example 40, rac-4-(1-Naphthalen-1-yl-ethyl)-1H-imidazole] showed a Ki of 3 nM.
Work on `Brc1cc(Cc2c[nH]cn2)c2occc2c1` [Example 49, 4-(5-Bromo-benzofuran-7-ylmethyl)-1-imidazole] yielded a Ki of 0.9 nM.

Same assay, conditions: mouseTAAR1; competition with [3H]-rac-2-(1,2,3,4-tetrahydro-1-naphthyl)-2-imidazoline, 4° C., 30 min; read-out: Ki
`CCc1cc(OCc2ccccc2)cc(CC)c1Cc1cnc[nH]1` [Example 73, 4-(4-Benzyloxy-2,6-diethyl-benzyl)-1H-imidazole] gave a Ki of 11.7 nM.
In the case of `Cc1cccc(Cc2c[nH]cn2)c1C` [Example 25, 4-(2,3-Dimethyl-benzyl)-1H-imidazole, reference compound], the Ki is reported as 43 nM.
